For orientation: pIC50 means the IC50 on a negative log10 scale, so that one unit is a factor of ten. What is called viability, T/C is the result in the treated group divided by that in the control group, in per cent.

pIC50: −log10 of the molar value. Several values for one entry are separate records, joined by “and”; a condition that tells them apart may be missing. Identical values can stand only once.

This assay deals with 299254-011-R-J1-PDC complex spheroid viability. Description: Anticancer human tumor 299254-011-R-J1-PDC patient-derived melanoma cell line growth inhibition [POLQ]. The note with it: for viability, T/C: stronger effect = lower value. The procedure:
Multicellular complex tumor spheroid response to Polymerase (POL) inhibitors (novobiocin, ART-558, RP6685) in combination with a variety of drugs and investigational agents in selected tumor cell lines
The POL inhibitors (novobiocin, ART-558, and RP6685) were evaluated both individually and in combination with standard of care and investigational anticancer small molecules within a complex spheroid model of solid tumors. . Complex spheroids include a stromal component modeled by human endothelial cells (HUVEC) and fibroblasts modeled by human mesenchymal stem cells (MSCs). The concentration ranges selected for each drug and investigational agent were based upon clinically achievable concentrations if the clinical Cmax of the agent was known.
Compounds. The drugs and investigational agents: novobiocin (NSC847541), ART-558 (NSC835418), RP-6685 (NSC848927), peposertib (NSC802822), ceralasertib (NSC780249), elimusertib (NSC800525), camonsertib (NSC841442), AZD-1390 (NSC803789), olaparib (NSC753686), talazoparib (NSC767125), rucaparib (NSC756644), sotorasib (NSC818433), MRTX-1133 (NSC836407), SN-38 (NSC673596), topotecan (NSC609699), epotoside (NSC141540), doxorubicin (NSC123127), gemcitabine (NSC613327), 5-fluorouracil (NSC19893), paclitaxel (NSC125973), vemurafenib (NSC761431), MSA-2 (NSC828583), SN-011 (NSC837082), adavosertib (NSC754352), prexasertib (NSC758257), carboplatin (NSC241240) and oxaliplatin (NSC266046), were obtained from the National Cancer Institute (NCI) Developmental Therapeutics Program Chemical Repository (21). The FDA-approved anticancer drug set is available from the Developmental Therapeutics Program at https://dtp.cancer.gov/organization/dscb/obtaining/. […] The stock solutions were prepared in dimethyl sulfoxide (DMSO, Sigma-Aldrich, St. Louis, MO, cat. D2650), except for the platinum compounds which were prepared in saline (Quality Biological, Gaithersburg, MD, cat. 114-055-101), at 800-fold the tested concentration and stored at -70 degrees C prior to their use. All drugs and investigational agents were tested over a range starting from a high concentration at or near the clinical Cmax and decreasing in half-log increments. If the clinical Cmax for an agent had not been determined, the highest concentration tested was 10 microM, except for SN-38, which was tested at a high concentration of 1 microM.
Cell Culture. All cells were maintained in an incubator at 37 degrees C and 5% CO2 with 95% humidity. The PDC lines were cultured according to standard operating procedures established by the NCI PDMR (https://pdmr.cancer.gov). Table 3 of the manuscript, lists the cell lines along with the number of the three cell types plated to form the mct-spheroids and media for tumor cell growth. After thawing, all PDC lines, except 997537-175-T-J1-PDC and 415267-285-R-J2-PDC, were cultured in Matrigel-coated flasks prepared with a working solution of 1X Ham's F-12 nutrient mix, without supplementation (Thermo Fisher Scientific, cat. 11765054), 100 U/mL penicillin-streptomycin (Thermo Fisher Scientific, cat. 15140122), and 2.5% Matrigel (Corning Inc., Corning, NY, cat. 354248) for the first three passages. The two PDC lines 997537-175-T-J1-PDC and 415267-285-R-J2-PDC were cultured on uncoated flasks. The 857933-349-R-J2-PDC line was cultured in 6C/Colon 1B media containing advanced DMEM/F-12 (Thermo Fisher Scientific, cat. 12634028), 10 mM HEPES (Thermo Fisher Scientific, cat. 15630080), 1X GlutaMAX supplement (Thermo Fisher Scientific, cat. 35050061), 0.1 mg/mL primocin (InvivoGen, San Diego, CA, cat. ant-pm-2), 10% defined fetal bovine serum, heat inactivated (HyClone Laboratories Inc., Logan, UT, cat. SH30070.03HI), 50% L-WRN conditioned media (ATCC, cat. CRL-3276), 1.25 mM N-Acetyl-L-cysteine (Sigma-Aldrich, cat. A9165), 10 mM nicotinamide (Sigma-Aldrich, cat. N0636), 1X B-27 supplement (Thermo Fisher Scientific, cat. 17504044), 1X N-2 supplement (Thermo Fisher Scientific, cat. […]

Where [1] appears, read: curve of first compound, second compound 0.0316 µM.
Where [2] appears, read: curve of first compound, second compound 0.1 µM.
Setting [3] is: curve of first compound, second compound 0.316 µM.
Where [4] appears, read: curve of first compound, second compound 1 µM.
The mark [5] stands for this setting: curve of first compound, second compound 3.16 µM.
Setting [6] is: curve of first compound, second compound 10 µM.
[7] abbreviates: second compound 0.0316 µM, first compound 0.0316 µM.
Setting [8] is: second compound 0.0316 µM, first compound 0.1 µM.
Where [9] appears, read: second compound 0.0316 µM, first compound 0.316 µM.
Where [10] appears, read: second compound 0.0316 µM, first compound 1 µM.
Setting [11] is: second compound 0.0316 µM, first compound 3.16 µM.
[12] abbreviates: second compound 0.0316 µM, first compound 10 µM.
[13] abbreviates: second compound 0.1 µM, first compound 0.0316 µM.
[14] abbreviates: second compound 0.1 µM, first compound 0.1 µM.
Where [15] appears, read: second compound 0.1 µM, first compound 0.316 µM.
Setting [16] is: second compound 0.1 µM, first compound 1 µM.
Setting [17] is: second compound 0.1 µM, first compound 3.16 µM.
Where [18] appears, read: second compound 0.1 µM, first compound 10 µM.
[19] abbreviates: second compound 0.316 µM, first compound 0.0316 µM.
The mark [20] stands for this setting: second compound 0.316 µM, first compound 0.1 µM.
[21] abbreviates: second compound 0.316 µM, first compound 0.316 µM.
Setting [22] is: second compound 0.316 µM, first compound 1 µM.
The mark [23] stands for this setting: second compound 0.316 µM, first compound 3.16 µM.
Where [24] appears, read: second compound 0.316 µM, first compound 10 µM.
Setting [25] is: second compound 1 µM, first compound 0.0316 µM.
Where [26] appears, read: second compound 1 µM, first compound 0.1 µM.
Setting [27] is: second compound 1 µM, first compound 0.316 µM.
Setting [28] is: second compound 1 µM, first compound 1 µM.
Where [29] appears, read: second compound 1 µM, first compound 3.16 µM.
[30] abbreviates: second compound 1 µM, first compound 10 µM.
The mark [31] stands for this setting: second compound 3.16 µM, first compound 0.0316 µM.
Where [32] appears, read: second compound 3.16 µM, first compound 0.1 µM.
Where [33] appears, read: second compound 3.16 µM, first compound 0.316 µM.
Where [34] appears, read: second compound 3.16 µM, first compound 1 µM.
Where [35] appears, read: second compound 3.16 µM, first compound 3.16 µM.
Setting [36] is: second compound 3.16 µM, first compound 10 µM.
Where [37] appears, read: second compound 10 µM, first compound 0.0316 µM.
[38] abbreviates: second compound 10 µM, first compound 0.1 µM.
Setting [39] is: second compound 10 µM, first compound 0.316 µM.
Where [40] appears, read: second compound 10 µM, first compound 1 µM.
Where [41] appears, read: second compound 10 µM, first compound 3.16 µM.
Where [42] appears, read: second compound 10 µM, first compound 10 µM.
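Also: spheroids exposed to drugs for one week before measurement.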
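For viability, T/C in this document: percent viability relative to DMSO vehicle control taken as 100%.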

With `C=CC(=O)N1CCN(c2nc(=O)n(-c3c(C)ccnc3C(C)C)c3nc(-c4c(O)cccc4F)c(F)cc23)C(C)C1` (stereo not given) + COC1C(OC(N)=O)C(O)C(Oc2ccc3c(O)c(NC(=O)c4ccc(O)c(CC=C(C)C)c4)c(=O)oc3c2C)OC1(C)C, the pIC50 under setting [1] was less than 5.00; the pIC50 under setting [2] was less than 5.00; the pIC50 under setting [3] was less than 5.00; the pIC50 under setting [4] was less than 5.00; the pIC50 under setting [5] is less than 5.00; the pIC50 under setting [6] is less than 5.00. Also, the viability, T/C was 75.8% under setting [7]; 72.7% under setting [8]; 64.3% under setting [9]; 66.3% under setting [10]; 69% under setting [11]; 65.1% under setting [12]. In addition, the viability, T/C by setting is: under setting [13], 73.9%; under setting [14], 69.6%; under setting [15], 64.8%; under setting [16], 63.1%; under setting [17], 59.4%; under setting [18], 73.4%. For the same molecule, the viability, T/C reads like this: under setting [19], 91.4%; under setting [20], 75.5%; under setting [21], 69.7%; under setting [22], 66.6%; under setting [23], 70.4%; under setting [24], 54.2%. Further, the viability, T/C is 83.5% under setting [25]; 70.7% under setting [26]; 60.7% under setting [27]; 73.3% under setting [28]; 66.1% under setting [29]; 70.3% under setting [30]. For the same molecule, the viability, T/C under setting [31] is 77.1%; the viability, T/C under setting [32] was 65.5%; the viability, T/C under setting [33] was 62.3%; the viability, T/C under setting [34] is 64.7%; the viability, T/C under setting [35] was 69.3%; the viability, T/C under setting [36] was 60.1%. The viability, T/C is 82.9% under setting [37]; 74.5% under setting [38]; 63.5% under setting [39]; 58.7% under setting [40]; 62.5% under setting [41]; 56.8% under setting [42].

`COc1cc(C2c3cc4c(cc3C(OC3OC5COC(C)OC5C(O)C3O)C3COC(=O)C23)OCO4)cc(OC)c1O` (stereo not given): the viability, T/C runs as follows: (compound 0.0316 µM) 101% and 98.9% and 106%; (compound 0.1 µM) 103% and 106% and 84.8%; (compound 0.316 µM) 93.5% and 92.1% and 111%; (compound 1 µM) 87.4% and 91.4% and 94.4%; (compound 3.16 µM) 67.7% and 73.7% and 72.5%; (compound 10 µM) 53.7% and 56.4% and 62.8%. The pIC50 (curve of compound) is less than 5.00.

As for `Nc1ccn(C2OC(CO)C(O)C2(F)F)c(=O)n1` (stereo not given) + Nc1ccc(C#CCN(C(=O)Cc2ncc(C(F)(F)F)cc2C(F)(F)F)c2ccc(F)cc2)nn1, the pIC50 was 6.91 under setting [1]; 6.45 under setting [2]; 7.08 under setting [3]; 6.60 under setting [4]; 6.84 under setting [5]; 6.56 under setting [6]. Also, the viability, T/C is 71.9% under setting [7]; 54.2% under setting [8]; 33.7% under setting [9]; 50.7% under setting [10]; 51.7% under setting [11]; 47.1% under setting [12]. The viability, T/C is 60.7% under setting [13]; 54.7% under setting [14]; 49.6% under setting [15]; 48.5% under setting [16]; 46% under setting [17]; 46.9% under setting [18]. Besides, the viability, T/C by setting is: under setting [19], 90%; under setting [20], 41.4%; under setting [21], 49.6%; under setting [22], 37.7%; under setting [23], 43.7%; under setting [24], 38.2%. The viability, T/C reads like this: under setting [25], 86.2%; under setting [26], 69.2%; under setting [27], 45.1%; under setting [28], 45.7%; under setting [29], 48%; under setting [30], 36.4%. The viability, T/C is, setting by setting: under setting [31], 73.7%; under setting [32], 51.5%; under setting [33], 47%; under setting [34], 42.1%; under setting [35], 37.7%; under setting [36], 43.5%. Moreover, the viability, T/C reads like this: under setting [37], 80%; under setting [38], 91.5%; under setting [39], 45.4%; under setting [40], 36.9%; under setting [41], 39.7%; under setting [42], 45%.

On to `CC1COCCN1c1cc(C2(S(C)(=N)=O)CC2)nc(-c2ccnc3[nH]ccc23)n1` (stereo not given), for which the viability, T/C was 92.2% and 108% and 93.8% (compound 0.0316 µM); 101% and 108% and 94.5% (compound 0.1 µM); 106% and 104% and 111% (compound 0.316 µM); 85.5% and 84.5% and 95% (compound 1 µM); 57.9% and 60.5% and 65.8% (compound 3.16 µM); 41.8% and 43.3% and 37.2% (compound 10 µM). Moreover, for the setting “curve of compound”, the pIC50 is 5.27 and 5.20 and 5.22.

Consider `C=CCn1c(=O)c2cnc(Nc3ccc(N4CCN(C)CC4)cc3)nc2n1-c1cccc(C(C)(C)O)n1`, for which the viability, T/C reads like this: (compound 0.00316 µM) 101% and 90.2% and 103%; (compound 0.01 µM) 98.3% and 97.1% and 94.1%; (compound 0.0316 µM) 106% and 114% and 110%; (compound 0.1 µM) 115% and 104% and 105%; (compound 0.316 µM) 83.5% and 95.6% and 103%; (compound 1 µM) 79.1% and 78.9% and 58.3%. Further, the pIC50 (curve of compound) is less than 6.00.

(Values after PubChem BioAssay AID1963849 (Molecular Pharmacology Branch, DTP, NCI, 2024).)
